Read-outs that look alike come from different tables or passages of the source.
Columns and labels:
[1] = test system: rat peritoneal mast cells; experiment: Mast cell degranulation stimulated with compound 48/80 (release of β-glucuronidase and histamine); format: cell-based; conditions: for IC50: Mast cell, compound 48/80 (10 μg/mL); for % of inhibition of Histamine release at the highest concentration / % of inhibition of β-Glucuronidase release at the highest concentration: compound 48/80, at the highest concentration (bound given in the source)
Method: Heparinized Tyrode's solution was injected into the peritoneal cavity of exsanguinated rat (Sprague-Dawley, 250-300 g, 10-12 weeks old). […] Cell pellets were washed and suspended in Tyrode's solution with 0.1% BSA to 1×10^6 cells/mL. Cell suspension was then preincubated at 37° C. with DMSO or a tested compound for 5 min. The final volume of DMSO in the reaction mixture was≦0.5%. […] After treatment of the cell suspension with Triton X-100, the total content of β-glucuronidase and histamine was measured, and the percentage release was calculated. In the experiment, Mepacrine was used as a positive control.

rat neutrophils [2] = experiment: Neutrophil degranulation stimulated with fMLP/CB (release of β-glucuronidase and lysozyme); format: cell-based; conditions: for IC50: Neutrophil, fMLP (1 μM)/CB (5 μg/mL); for IC50 / % of inhibition of Lysozyme release at the highest concentration / % of inhibition of β-Glucuronidase release at the highest concentration: rat neutrophils; for % of inhibition of Lysozyme release at the highest concentration / % of inhibition of β-Glucuronidase release at the highest concentration: at the highest concentration (bound given in the source)
Method: Blood was withdrawn from rat (Sprague-Dawley, 250-300 g, 10-12 weeks old) and mixed with EDTA. […] Cell suspension was preincubated at 37° C. with DMSO or drugs for 10 min, and then challenged with fMLP (1 μM)/CB (5 μg/mL). The final volume of DMSO in the reaction mixture was≦0.5%. […] After treatment of the cell suspension with Triton X-100, the total content of lysozyme and β-glucuronidase was measured and the percentage release was calculated. In the experiment, Trifluoperazine was used as a positive control.

rat neutrophils [3] = experiment: Superoxide anion generation in neutrophils stimulated with fMLP/CB or PMA (cytochrome c reduction); format: cell-based; conditions: for inhibition / IC50: Neutrophil; for inhibition / IC50 / % of inhibition of superoxide anion generation at the highest concentration, fMLP/CB: rat neutrophils; for inhibition / % of inhibition of superoxide anion generation at the highest concentration, fMLP/CB: at the highest concentration (bound given in the source)
Method: Superoxide anion generation was measured in terms of superoxide dismutase-inhibitable cytochrome c reduction (M. Market et al. (1984), Methods Enzymol., 105, 358). Neutrophil suspension was preincubated with DMSO or a tested compound for 3 min, and then superoxide dismutase or Hank's balanced salt solution (HBSS) was added into the blank and test wells, respectively. The final volume of DMSO in the reaction mixture was≦0.5%. After addition of cytochrome c, reaction was initiated by challenge with formyl-Met-Leu-Phe (fMLP) (0.3 μM)/cytochalasin B (CB) (5 μg/mL) or phorbol myristate acetate (PMA) (3 nM). Thirty minutes later, the reaction was terminated by centrifugation and the absorbance changes of supernatant were monitored at 550 nm in a microplate reader. In the experiment, Trifluoperazine was used as a positive control

RAW 264.7 cells = experiment: NO production (nitrite accumulation, Griess reaction) in LPS-stimulated macrophage-like cells; format: cell-based, mouse; conditions: for % of inhibition of NO2− accumulation at the highest concentration, RAW 264.7 cells: LPS, at the highest concentration (bound given in the source); for IC50 / suppression of LPS-induced NO production in RAW 264.7 cells (in words): LPS (1 μg/mL), 24 hrs; for IC50: read-out: IC50, accumulation of NO2− in culture media, RAW 264.7 cells
Method: RAW 264.7 mouse macrophage-like cell line (American Type Culture Collection (ATCC), PO Box 1549, Manassas, Va. 20108 USA) was plated in 96 well tissue-culture plates in Dulbecco's Modified Eagle Medium (DMEM) supplemented with 10% fetal calf serum (FCS), 100 units/ml of penicillin and streptomycin at 2×10^5 cells/200 μL per well. Cells were allowed to adhere overnight. The cells were treated with DMSO or a tested compound at 37° C. for 1 hr. followed by stimulation with 1 μg/mL of LPS (Escherichia coli, serotype 0111:B4) for 24 hrs. Thereafter, the medium in each well was collected and stored at −70° C. until use. The final volume of DMSO in the reaction mixture was≦0.5%.
(§1) The production of NO in cell medium was determined by measuring the content of nitrite based on the Griess reaction (L. Mingghetti et at (1997), Glia, 19, 152-160). Briefly, 40 μL of 5 mM sulfanilamide, 10 μL of 2 M HCl, and 20 μL of 40 mM naphthylethylenediamine were added into 150 μL culture medium in sequence. After 10 min of incubation at room temperature, absorbance was measured at 550 nm in a microplate reader. A standard nitrite curve was generated in the same fashion, using NaNO2.

N9 cells = experiment: NO production (nitrite accumulation, Griess reaction) in LPS/IFN-γ-stimulated microglial cells; format: cell-based, murine; conditions: for % of inhibition of NO2− accumulation at the highest concentration, N9 cells: LPS/IFN-γ, at the highest concentration (bound given in the source); for IC50: LPS (10 ng/mL)/IFN-γ (10 unit/mL), 24 hrs, read-out: IC50, accumulation of NO2− in culture media, N9 cells
Method: Cells of murine microglial cell line N9 (kindly provided by Dr. P. Ricciardi-Castagnoli, CNR Cellular and Molecular Pharmacology Center, Italy) (S. B. Corradin et al. (1993), Glia, 7, 255-262) were suspended in Iscove's Modified Dulbecco's medium containing 5% heat-inactivated FCS and antibiotics and then plated into 96-well tissue-culture plates at 8×10^4 cells/200 μL per well. The cells were treated with DMSO or a tested compound at 37° C. for 1 hr, followed by stimulation with LPS (10 ng/mL)/IFN-γ (10 unit/mL) for 24 hrs. Thereafter, the medium in each well was collected and stored at −70° C. until use. The final volume of DMSO in the reaction mixture was<0.5%
as §1

rat neutrophils [4] = conditions: rat neutrophils stimulated with fMLP; concentration of 3 mg/mL; cited from earlier work
[5] = read-out: IG50, release of Histamine
[6] = read-out: IG50, release of β-Glucuronidase
[7] = read-out: IC50, release of Lysozyme
[8] = read-out: IC50, release of β-Glucuronidase
[9] = PMA (3 nM), read-out: IC50, superoxide anion generation, PMA
[10] = fMLP (0.3 μM)/CB (5 μg/mL), read-out: IC50, superoxide anion generation, fMLP/CB

| IC50 [1, 5] [µM] | IC50 [1, 6] [µM] | IC50 (rat neutrophils [2]; [7]) [µM] | IC50 (rat neutrophils [2]; [8]) [µM] | IC50 (rat neutrophils [3]; [9]) [µM] | IC50 (rat neutrophils [3]; [10]) [µM] | IC50 (RAW 264.7 cells; Mus musculus, RAW264.7) [µM] | IC50 (N9 cells; Mus musculus, N9) [µM] | melting point [°C] | Structure (SMILES) | % of inhibition of Histamine release at the highest concentration [1] [%] | % of inhibition of β-Glucuronidase release at the highest concentration [1] [%] | inhibition (rat neutrophils [3]; PMA (3 nM)) [%] | % of inhibition of NO2− accumulation at the highest concentration, RAW 264.7 cells (RAW 264.7 cells) [%] | % of inhibition of NO2− accumulation at the highest concentration, N9 cells (N9 cells) [%] | also measured |
| --- | --- | --- | --- | --- | --- | --- | --- | --- | --- | --- | --- | --- | --- | --- | --- |
| > 30 | > 30 | 5.1 ± 0.1 | 5 ± 0.3 | > 30 | 12.9 ± 0.4 | > 3 | > 3 | 121 to 123 | COc1ccc(OC)c(C(=O)/C=C/c2ccc(Cl)c(Cl)c2)c1 [Compound 3, 3,4Dichloro-2′,5′-dimethoxychalcone] | 35.2 ± 1.0 | 44.3 ± 2.3 | -27.1 | 2.0 ± 3.1 | 4.3 ± 3.1 | – |
| > 30 | > 30 | > 30 | > 30 | > 30 | 24.3 ± 3.2 | > 30 | > 30 | 95 to 97 | O=C(/C=C/c1cccs1)c1cccs1 [Compound 8, 2′,2-Dithienylchalcone] | 20.9 ± 1.2 | 17.3 ± 2.6 | 35.6 | 12.5 ± 2.2 | 15.2 ± 0.5 | % of inhibition of Lysozyme release at the highest concentration (rat neutrophils [2]; fMLP/CB): 30.0 ± 1.4%; % of inhibition of β-Glucuronidase release at the highest concentration (rat neutrophils [2]; fMLP/CB): 46.6 ± 0.7% |
| > 30 | > 30 | > 30 | > 30 | > 30 | > 30 | 4.9 ± 0.3 | 3.7 ± 0.1 | 152 to 153 | CCOc1ccc(OCC)c(C(=O)/C=C/c2ccc(Cl)c(Cl)c2)c1 [Compound 5, 3,4-Dichloro-2′,5′-diethoxychalcone] | 12.9 ± 7.9 | 5.5 ± 4.7 | 13.2 | – | – | inhibitory effect on neutrophil degranulation (in words) (rat neutrophils [2]; fMLP/CB): no significant inhibitory effects; % of inhibition of Lysozyme release at the highest concentration (rat neutrophils [2]; fMLP/CB): 27.1 ± 5.0%; % of inhibition of β-Glucuronidase release at the highest concentration (rat neutrophils [2]; fMLP/CB): 30.6 ± 4.1%; inhibitory effect on fMLP/CB-induced superoxide anion generation (in words) (rat neutrophils [3]): not to have significant inhibitory effects; % of inhibition of superoxide anion generation at the highest concentration, fMLP/CB (rat neutrophils [3]): 32.4 ± 12.2%; suppression of LPS-induced NO production in RAW 264.7 cells (in words) (RAW 264.7 cells): suppressed |
| 48.5 ± 3.8 | 32.2 ± 3.6 | – | – | – | – | – | – | – | CCN(CC)CCCC(C)Nc1c2ccc(Cl)cc2nc2ccc(OC)cc12 (stereo not drawn) [Mepacrine, reference compound] | – | – | – | – | – | – |
| > 30 | > 30 | 6.6 ± 0.4 | 6.2 ± 0.3 | > 30 | 17.7 ± 7.2 | > 10 | > 30 | 97 to 99 | CCCOc1ccc(O)c(C(=O)/C=C/c2ccc(Cl)c(Cl)c2)c1 [Compound 6, 3,4-Dichloro-2′-hydroxy-5′-propoxy-chalcone] | 47.6 ± 2.4 | 49.2 ± 2.0 | 49.9 | 7.5 ± 0.4 | 26.4 ± 2.3 | – |
| – | – | 18.3 ± 0.9 | 18.9 ± 2.1 | 9.7 ± 1.1 | 12.9 ± 1 | – | – | – | CN1CCN(CCCN2c3ccccc3Sc3ccc(C(F)(F)F)cc32)CC1 [Trifluoperazine, reference compound] | – | – | – | – | – | – |
| – | – | – | – | – | – | – | – | – | COC(=O)[C@@H](N)CCCNC(=N)N[N+](=O)[O-] [L-NAME, N^ω-nitro-L-arginine methyl ether, reference compound] | – | – | – | – | – | IC50 (RAW 264.7 cells; positive control): 510 ± 20 µM; IC50 (N9 cells; positive control): 630 ± 10 µM |
| – | – | – | – | > 10 | 0.6 ± 0.2 | > 1 | > 1 | 171 to 174 | O=C(/C=C/c1ccc(Cl)c(Cl)c1)c1cc(O)ccc1O [Compound 4, 3,4-Dichloro-2′,5′-dihydroxychalcone] | – | – | 21.9 | −4.9 ± 1.9 | −10.3 ± 1.5 | inhibitory effect on fMLP/CB-induced superoxide anion generation (in words) (rat neutrophils [3]): more potent than the positive control, trifluoperazine |
| – | – | – | – | – | – | – | – | – | CC(C)=CCc1cc(C(=O)/C=C/c2ccc(O)c(O)c2)c(O)cc1O [Brousschalcone A] | – | – | – | – | – | % inhibition of release of lysozyme (rat neutrophils [4]): 68.0±13.4%; % inhibition of release of β-glucuronidase (rat neutrophils [4]): 51.1±12.6% |
| – | – | – | – | > 1 | > 1 | > 3 | > 3 | 156 to 157 | O=C(/C=C/c1ccsc1)c1cc(O)ccc1O [Compound 7, 2′,5′-Dihydroxy-3-thienylchalcone] | – | – | 23.5 | 9.7 ± 2.9 | 10.6 ± 8.2 | % of inhibition of superoxide anion generation at the highest concentration, fMLP/CB (rat neutrophils [3]): 43.4 ± 6.1% |
| > 30 | > 30 | 28.3 ± 1.9 | 20.6 ± 2 | > 30 | 19.5 ± 3.5 | 14.6 ± 0.1 | 17.8 ± 0.2 | 127 to 128 | COc1ccc(OC)c(C(=O)/C=C/c2ccc(O)cc2)c1 [Compound 1, 2′,5′-Dimethoxy-4-hydroxychalcone] | 10.0 ± 5.1 | 8.3 ± 2.3 | 36.3 | – | – | suppression of LPS-induced NO production in RAW 264.7 cells (in words) (RAW 264.7 cells): suppressed |
| > 30 | > 30 | 5.7 ± 0.3 | 5.6 ± 0.3 | > 30 | 8 ± 2.4 | > 10 | > 10 | 85 to 87 | COc1ccc(OC)c(C(=O)/C=C/c2ccc(Br)cc2)c1 [Compound 2, 4-Bromo-2′,5′-dimethoxychalcone] | 21.7 ± 1.5 | 28.6 ± 3.4 | 22.9 | 8.9 ± 4.0 | −5.6 ± 1.1 | – |

— patent publication US20040176471A1, “Novel chalcone derivatives and pharmaceutical compositions comprising the same” (KAOHSIUNG MEDICAL UNIVERSITY, priority 2003, published 2004)
